According to patent US9464071B2 (priority 2010, dated 2016):
“And” between values parts separate entries of the source, which are not always exact repeats. Equal entries are not always repeated. Structures can show the parent of a compound that is named as a salt.

Row | melting point | Compound
1 | 140 °C | COc1cc(OC)cc(N(CCCN2CCC[C@@H]2CC#N)c2ccc3ncc(-c4cnn(C)c4)nc3c2)c1 (as salt: HCl)
2 | 247 °C | COc1cccc(N(CCNC(C)C)c2ccc3ncc(-c4cnn(C)c4)nc3c2)c1
3 | 99.32 °C | COc1cc(OC)cc(N(CCCN2CCC(F)(F)C2)c2ccc3ncc(-c4cnn(CC5CCOCC5)c4)nc3c2)c1 [Compound 459]
4 | 66 °C | COc1cc(OC)cc(N(CCNC(C)C)c2ccc3ncc(-c4cnn(C5CCN(C(=O)OC(C)(C)C)CC5)c4)nc3c2)c1
5 | 131.93 °C | CNCCN(c1cc(OC)cc(OC)c1)c1ccc2ncc(-c3cnn(CCO)c3)nc2c1
6 | 80 °C | CCOC(=O)C1CCN(CCN(c2cc(OC)cc(OC)c2)c2ccc3ncc(-c4cnn(C)c4)nc3c2)CC1 [Compound 343]
7 | 132.82 °C | COCC(O)CN(c1cc(OC)cc(OC)c1)c1ccc2ncc(-c3cnn(C)c3)nc2c1 (stereo not shown) [Compound 397]
8 | 181 °C and 180 °C | CNc1cccc(CN(c2cc(OC)cc(OC)c2)c2ccc3ncc(-c4cnn(C)c4)nc3c2)n1
9 | 199 °C | COc1cc(OC)cc(N(C/C(C)=N\O)c2ccc3ncc(-c4cnn(C)c4)nc3c2)c1 [Compound 81]
10 | 155 °C | COc1cc(OC)cc(N(CC#Cc2ccc(C)cn2)c2ccc3ncc(-c4cnn(C)c4)nc3c2)c1
11 | 146.61 °C | COc1cc(OC)cc(N(CC(O)C(F)(F)F)c2ccc3ncc(-c4cnn(C)c4)nc3c2)c1 (single isomer, unassigned) [Compound 149, (2S*)-3-{(3,5-Dimethoxyphenyl)[3-(1-methyl-1H-pyrazol-4-yl)quinoxalin-6-yl]amino}-1,1,1-trifluoropropan-2-ol]
12 | 158.57 °C | COc1cc(OC)cc(N(CC2CO2)c2ccc3ncc(-c4cnn(C)c4)nc3c2)c1 (stereo not shown)
13 | 130 °C | COc1cc(OC)cc(N(CC2CC2)c2ccc3ncc(-c4cnn(CCN)c4)nc3c2)c1
14 | 190 °C | COc1cccnc1C#CCN(c1ccc2ncc(-c3cnn(C)c3)nc2c1)c1c(Cl)c(OC)cc(OC)c1Cl [Compound 785]
15 | 169.26 °C and 169 °C | COc1cc(OC)cc(N(CCO)c2ccc3ncc(-c4cn[nH]c4)nc3c2)c1 [Compound 2]
16 | 158 to 160 °C and 159 °C | COc1cc(OC)cc(N(CC2CC2)c2ccc3ncc(-c4cn[nH]c4)nc3c2)c1
17 | 184 °C | CNC(=O)Cn1cc(-c2cnc3ccc(N(CCNC(C)C)c4cc(OC)cc(OC)c4)cc3n2)cn1 (as salt: HCl) [Compound 134, 2-(4-{7-[(3,5-Dimethoxyphenyl){2-[(1-methylethyl)amino]ethyl}amino]quinoxalin-2-yl}-1H-pyrazol-1-yl)-N-methylacetamide]
18 | 264 °C and 260.14 °C | COc1cc(OC)cc(N(CC(N)=O)c2ccc3ncc(-c4cnn(C)c4)nc3c2)c1
19 | 176 °C | COc1cc(OC)cc(N(CCO)c2ccc3ncc(-c4cnn(C)c4CN(C)C)nc3c2)c1
20 | 234.8 °C | COc1cc(OC)cc(N(C[C@@H](O)CN2CC[C@H](C#N)C2)c2ccc3ncc(-c4cnn(C)c4)nc3c2)c1 [Compound 526]
21 | 135 °C | COc1cc(OC)cc(N(CCCN2CCC[C@H]2CC#N)c2ccc3ncc(-c4cnn(C)c4)nc3c2)c1 (as salt: HCl)
22 | 149.13 °C | COc1cc(OC)cc(N(CC(O)C(F)(F)F)c2ccc3ncc(-c4cnn(C)c4)nc3c2)c1 (single isomer, unassigned) [Compound 148, (2R*)-3-{(3,5-Dimethoxyphenyl)[3-(1-methyl-1H-pyrazol-4-yl)quinoxalin-6-yl]amino}-1,1,1-trifluoropropan-2-ol]
23 | 201.43 °C | COc1cc(OC)cc(N(CC(=O)NCCO)c2ccc3ncc(-c4cnn(C)c4)nc3c2)c1

Row | melting point | Compound
24 | 143.58 °C | COc1cc(OC)cc(N(CCN2CCC(N(C)C)C2)c2ccc3ncc(-c4cnn(C)c4)nc3c2)c1 (stereo not shown) [Compound 456]
25 | 80 °C | COc1cc(OCCN)cc(N(CC2CC2)c2ccc3ncc(-c4cnn(C)c4)nc3c2)c1 [Compound 32]
26 | 139 °C | COc1cc(F)cc(N(CCO)c2ccc3ncc(-c4cnn(CCO)c4)nc3c2)c1 [Compound 315]
27 | 184 °C | COc1cc(OC)cc(N(CCN)c2ccc3ncc(-c4cn[nH]c4)nc3c2)c1
28 | 123.19 °C | COc1cc(OC)cc(N(CCNCCC#N)c2ccc3ncc(-c4cnn(C)c4)nc3c2)c1 [Compound 140, 3-[(2-{(3,5-Dimethoxyphenyl)[3-(1-methyl-1H-pyrazol-4-yl)quinoxalin-6-yl]amino}ethyl)amino]propanenitrile]
29 | 110 °C | COc1cc(OC)cc(N(CC2CC2)c2ccc3ncc(-c4cnn(CC(C)C)c4)nc3c2)c1
30 | 167.45 °C | COc1cc(OC)cc(N(CC2CC2)c2ccc3ncc(-c4cnn(CC(=O)NCCO)c4)nc3c2)c1
31 | 186 °C | COc1cc(OC)cc(N(Cc2nccn2C)c2ccc3ncc(-c4cnn(C)c4)nc3c2)c1 [Compound 101]
32 | 203 °C | COc1cc(OC)cc(N(CC#Cc2cccc(N)n2)c2ccc3ncc(-c4cnn(C)c4)nc3c2)c1
33 | 176 °C | COc1cc(OC)cc(N(CC#Cc2cccnc2Br)c2ccc3ncc(-c4cnn(C)c4)nc3c2)c1
34 | 139 °C | COc1cc(OC)cc(N(Cc2ccncc2)c2ccc3ncc(-c4cnn(C)c4)nc3c2)c1 [Compound 569]
35 | 212 °C | COc1cc(OC)cc(N(CC(=O)Nc2cc(C)ccn2)c2ccc3ncc(-c4cnn(C)c4)nc3c2)c1
36 | 109 °C and 108.61 °C | CC(C)Oc1cccc(N(CC2CC2)c2ccc3ncc(-c4cnn(C)c4)nc3c2)c1 [Compound 22]
37 | 130.63 °C | COc1cc(OC)cc(N(CC(O)CN2CCOCC2)c2ccc3ncc(-c4cnn(C)c4)nc3c2)c1 (stereo not shown) [Compound 540]
38 | 162.91 °C | COc1cc(OC)cc(N(CC2CC2)c2ccc3ncc(-c4cnn(CC(=O)NCCN5CCCC5)c4)nc3c2)c1
39 | 215.29 °C | COc1cc(OC)cc(N(CCCN2CCC(F)(F)C2)c2ccc3ncc(-c4cn[nH]c4)nc3c2)c1 (as salt: HCl)
40 | 193.25 °C and 192 °C | COc1cc(OC)cc(N(CC#Cc2nccn2C)c2ccc3ncc(-c4cnn(C)c4)nc3c2)c1
41 | 148 °C | COc1cc(OC)cc(N(CC2CN(Cc3ccccc3)CCN2Cc2ccccc2)c2ccc3ncc(-c4cnn(C)c4)nc3c2)c1 (stereo not shown)
42 | 186 °C | COc1cc(O)cc(N(CCN)c2ccc3ncc(-c4cnn(C)c4)nc3c2)c1
43 | 175.51 °C and 178 °C | COc1cc(OC)cc(N(CCCN)c2ccc3ncc(-c4cnn(C)c4)nc3c2)c1 [Compound 93, N-(3,5-Dimethoxyphenyl)-N-[3-(1-methyl-1H-pyrazol-4-yl)quinoxalin-6-yl]propane-1,3-diamine]
44 | 106 °C | C#CCN(c1cc(OC)cc(OC)c1)c1ccc2ncc(-c3cnn(CC4CCOCC4)c3)nc2c1
45 | 123.16 °C | COc1cc(OC)cc(N(CC2CC2)c2ccc3ncc(-c4cnn(CCCN5CCOCC5)c4)nc3c2)c1
46 | 80 °C | COc1cc(OC)cc(N(CCN2C[C@H](C)C[C@@H](C)C2)c2ccc3ncc(-c4cnn(C)c4)nc3c2)c1 (as salt: HCl) [Compound 40]

Row | melting point | Compound
47 | 168 °C and 168.08 °C | COc1cc(OC)cc(N(CC2CCN(C(C)C)CC2)c2ccc3ncc(-c4cnn(C)c4)nc3c2)c1
48 | 150 °C | COc1cc(OC)cc(N(CCC(C)(C)O)c2ccc3ncc(-c4cnn(C)c4)nc3c2)c1 [Compound 141, 4-{(3,5-Dimethoxyphenyl)[3-(1-methyl-1H-pyrazol-4-yl)quinoxalin-6-yl]amino}-2-methylbutan-2-ol]
49 | 134 °C | COc1cc(OC)cc(N(CC2CN(Cc3ccccc3)CCO2)c2ccc3ncc(-c4cnn(C)c4)nc3c2)c1 (stereo not shown)
50 | 157 °C | COc1cc(OC)cc(N(CCCn2cc(C)nc2C)c2ccc3ncc(-c4cnn(C)c4)nc3c2)c1 (as salt: HCl)
51 | 62 °C | COc1cc(OC)cc(N(CCO)c2ccc3ncc(-c4cnn(C)c4CCCO)nc3c2)c1
52 | 110 °C and 111 °C | COc1cc(OC)cc(N(CCCc2cc(C)ccn2)c2ccc3ncc(-c4cnn(C)c4)nc3c2)c1 [Compound 635]
53 | 148 °C | COc1cc(OC)cc(N(CC#Cc2ccnc(N)n2)c2ccc3ncc(-c4cnn(C)c4)nc3c2)c1
54 | 119 °C | COc1cc(OC)cc(N(CC#Cc2ncccc2OC)c2ccc3ncc(-c4cnn(C(C)C)c4)nc3c2)c1
55 | 148 °C | COc1cc(OC)cc(N(CCNC(C)C)c2ccc3ncc(-c4cnn(CCS(C)(=O)=O)c4)nc3c2)c1
56 | 193.59 °C | CNCCN(c1cc(OC)cc(OC)c1)c1ccc2ncc(-c3cn[nH]c3)nc2c1
57 | 110 °C | COCC(O)CN(c1cc(OC)cc(OC)c1)c1ccc2ncc(-c3cnn(C(C)C)c3)nc2c1 (stereo not shown) (as salt: hydrochloric acid salt)
58 | 80 °C | COc1cc(OC)cc(N(CCNC2CC(C)(C)NC(C)(C)C2)c2ccc3ncc(-c4cnn(C)c4)nc3c2)c1
59 | 196.25 °C | COc1cc(OC)cc(N(CCCC#N)c2ccc3ncc(-c4cnn(C)c4)nc3c2)c1 [Compound 242]
60 | 155.79 °C | COc1cc(OC(C)C)cc(N(CC2CC2)c2ccc3ncc(-c4cnn(C)c4)nc3c2)c1 [Compound 269]
61 | 163 °C | COc1cc(OC)cc(N(Cc2cnccn2)c2ccc3ncc(-c4cnn(C)c4)nc3c2)c1 [Compound 146, N-(3,5-Dimethoxyphenyl)-3-(1-methyl-1H-pyrazol-4-yl)-N-(pyrazin-2-ylmethyl)quinoxalin-6-amine]
62 | 184.2 °C | COc1cc(OC)cc(N(Cc2ccc(Cl)s2)c2ccc3ncc(-c4cnn(CCO)c4)nc3c2)c1 [Compound 340]
63 | 130 °C | COc1cc(OC)cc(N(CCn2cccc2)c2ccc3ncc(-c4cnn(C)c4)nc3c2)c1 (as salt: HCl)
64 | 160.27 °C | COc1cc(OC)cc(N(CC2CC2)c2ccc3ncc(-c4cnn(CCNS(=O)(=O)N(C)C)c4)nc3c2)c1
65 | 112.31 °C | COc1cc(OC)cc(N(CCCN2CC(F)(F)C2)c2ccc3ncc(-c4cnn(C)c4)nc3c2)c1 [Compound 377]
66 | 158.73 °C | COc1cc(OC)cc(N(CCCNS(=O)(=O)N(C)C)c2ccc3ncc(-c4cnn(C)c4)nc3c2)c1 [Compound 316]
67 | 204.29 °C | COc1cc(OC)cc(N(CC2OCCO2)c2ccc3ncc(-c4cnn(C)c4)nc3c2)c1
